Source: PubChem BioAssay (NCI)
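48-hour exposure; five concentrations; linearly interpolated endpoints. TGI denotes the concentration required for complete inhibition of growth.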

How the values were obtained:
Assay in all cases: NCI-60 cell line screen, 48 h
[1] = tested on: 786-0 renal
[2] = tested on: A498 renal
[3] = tested on: A549 NSCLC
[4] = tested on: ACHN renal
[5] = tested on: CAKI-1 renal
[6] = tested on: CCRF-CEM leukemia
[7] = tested on: COLO 205 colon
[8] = tested on: DU-145 prostate
[9] = tested on: EKVX NSCLC
[10] = tested on: HCC-2998 colon
[11] = tested on: HCT-116 colon
[12] = tested on: HCT-15 colon
[13] = tested on: HOP-62 NSCLC
[14] = tested on: HOP-92 NSCLC
[15] = tested on: HS 578T breast
[16] = tested on: HT29 colon
[17] = tested on: IGROV1 ovarian
[18] = tested on: K-562 leukemia
[19] = tested on: KM12 colon
[20] = tested on: LOX IMVI melanoma
[21] = tested on: M14 melanoma
[22] = tested on: MALME-3M melanoma
[23] = tested on: MCF7 breast
[24] = tested on: MDA-MB-231 breast
[25] = tested on: MDA-MB-435
[26] = tested on: MDA-N
[27] = tested on: MOLT-4 leukemia
[28] = tested on: NCI-H226 lung
[29] = tested on: NCI-H23 lung
[30] = tested on: NCI-H460 lung
[31] = tested on: NCI-H522 lung
[32] = tested on: NCI/ADR-RES ovarian
[33] = tested on: OVCAR-3 ovarian
[34] = tested on: OVCAR-4 ovarian
[35] = tested on: OVCAR-5 ovarian
[36] = tested on: OVCAR-8 ovarian
[37] = tested on: PC-3 prostate
[38] = tested on: RPMI-8226 leukemia
[39] = tested on: SF-268 CNS
[40] = tested on: SF-295 CNS
[41] = tested on: SF-539 CNS
[42] = tested on: SK-MEL-2 melanoma
[43] = tested on: SK-MEL-28 melanoma
[44] = tested on: SK-MEL-5 melanoma
[45] = tested on: SK-OV-3 ovarian
[46] = tested on: SN12C renal
[47] = tested on: SNB-19 CNS
[48] = tested on: SNB-75 CNS
[49] = tested on: SR leukemia
[50] = tested on: SW-620 colon
[51] = tested on: T-47D breast
[52] = tested on: TK-10 renal
[53] = tested on: U251 CNS
[54] = tested on: UACC-257 melanoma
[55] = tested on: UACC-62 melanoma
[56] = tested on: UO-31 renal
[57] = tested on: BT-549 breast
[58] = tested on: RXF 393 renal
[59] = tested on: HL-60(TB) leukemia

Structure (SMILES): CCC1=C(c2ccc(OC)cc2)CC[C@@]2(CCNC2=O)[C@@H]1C
- TGI [1]: > 100 µM
- TGI [2]: > 100 µM
- TGI [3]: > 100 µM
- TGI [4]: > 100 µM
- TGI [5]: > 100 µM
- TGI [6]: > 100 µM
- TGI [7]: > 100 µM
- TGI [8]: > 100 µM
- TGI [9]: > 100 µM
- TGI [10]: > 100 µM
- TGI [11]: > 100 µM
- TGI [12]: > 100 µM
- TGI [13]: > 100 µM
- TGI [14]: > 100 µM
- TGI [15]: > 89.5 µM
- TGI [16]: > 100 µM
- TGI [17]: > 100 µM
- TGI [18]: > 95.9 µM
- TGI [19]: > 100 µM
- TGI [20]: > 100 µM
- TGI [21]: > 100 µM
- TGI [22]: > 100 µM
- TGI [23]: > 100 µM
- TGI [24]: > 100 µM
- TGI [25]: > 100 µM
- TGI [26]: > 100 µM
- TGI [27]: > 90.3 µM
- TGI [28]: > 100 µM
- TGI [29]: > 100 µM
- TGI [30]: > 100 µM
- TGI [31]: > 100 µM
- TGI [32]: > 100 µM
- TGI [33]: > 100 µM
- TGI [34]: > 100 µM
- TGI [35]: > 100 µM
- TGI [36]: > 100 µM
- TGI [37]: > 100 µM
- TGI [38]: > 100 µM
- TGI [39]: > 100 µM
- TGI [40]: > 100 µM
- TGI [41]: > 100 µM
- TGI [42]: > 100 µM
- TGI [43]: > 100 µM
- TGI [44]: 58.7 µM
- TGI [45]: > 100 µM
- TGI [46]: > 100 µM
- TGI [47]: > 100 µM
- TGI [48]: > 100 µM
- TGI [49]: > 100 µM
- TGI [50]: > 100 µM
- TGI [51]: > 100 µM
- TGI [52]: > 100 µM
- TGI [53]: > 100 µM
- TGI [54]: > 100 µM
- TGI [55]: > 100 µM
- TGI [56]: > 100 µM

Structure (SMILES): CCOC(=O)N/N=C(\Cc1ccccc1)OCC
- TGI [1]: > 100 µM
- TGI [3]: > 100 µM
- TGI [4]: > 100 µM
- TGI [57]: > 100 µM
- TGI [6]: > 100 µM
- TGI [7]: > 100 µM
- TGI [8]: > 100 µM
- TGI [9]: > 100 µM
- TGI [10]: > 100 µM
- TGI [11]: > 100 µM
- TGI [12]: > 100 µM
- TGI [13]: > 100 µM
- TGI [14]: > 100 µM
- TGI [16]: > 100 µM
- TGI [17]: > 100 µM
- TGI [18]: > 100 µM
- TGI [19]: > 100 µM
- TGI [20]: > 100 µM
- TGI [21]: > 100 µM
- TGI [23]: > 100 µM
- TGI [24]: > 100 µM
- TGI [25]: > 100 µM
- TGI [26]: > 100 µM
- TGI [27]: > 100 µM
- TGI [29]: > 100 µM
- TGI [31]: > 100 µM
- TGI [32]: > 100 µM
- TGI [33]: > 100 µM
- TGI [34]: > 100 µM
- TGI [35]: > 100 µM
- TGI [36]: > 100 µM
- TGI [37]: > 100 µM
- TGI [38]: > 100 µM
- TGI [58]: > 100 µM
- TGI [39]: > 100 µM
- TGI [40]: > 100 µM
- TGI [41]: > 100 µM
- TGI [42]: > 100 µM
- TGI [44]: > 100 µM
- TGI [45]: > 100 µM
- TGI [46]: > 100 µM
- TGI [47]: > 100 µM
- TGI [48]: > 100 µM
- TGI [49]: > 100 µM
- TGI [50]: > 100 µM
- TGI [52]: > 100 µM
- TGI [53]: > 100 µM
- TGI [54]: > 100 µM
- TGI [55]: > 100 µM
- TGI [56]: > 100 µM

Structure (SMILES): O=C(O)c1cc(-c2ccc3c(O)ccc(O)c3c2)ccc1O
- TGI [1]: 30.2 µM
- TGI [2]: 32 µM
- TGI [3]: > 100 µM
- TGI [4]: 33.4 µM
- TGI [5]: 30.2 µM
- TGI [6]: 5.58 µM
- TGI [7]: 39.4 µM
- TGI [8]: 52.3 µM
- TGI [9]: 34.7 µM
- TGI [10]: 32.6 µM
- TGI [11]: 32.6 µM
- TGI [12]: 34.4 µM
- TGI [59]: > 100 µM
- TGI [13]: 98.9 µM
- TGI [15]: 73.5 µM
- TGI [16]: 43.9 µM
- TGI [17]: 31.9 µM
- TGI [19]: 43.2 µM
- TGI [20]: 29.8 µM
- TGI [21]: 47.7 µM
- TGI [22]: 36.3 µM
- TGI [23]: 39.6 µM
- TGI [24]: 39.6 µM
- TGI [25]: 34.4 µM
- TGI [26]: 31.6 µM
- TGI [27]: 16.3 µM
- TGI [28]: 44 µM
- TGI [29]: 64.9 µM
- TGI [30]: 48.5 µM
- TGI [31]: 36.5 µM
- TGI [32]: 82.4 µM
- TGI [33]: 43.5 µM
- TGI [34]: 31.2 µM
- TGI [35]: 32.3 µM
- TGI [36]: 54.4 µM
- TGI [37]: 26.3 µM
- TGI [38]: > 100 µM
- TGI [58]: 27.9 µM
- TGI [39]: 82.9 µM
- TGI [40]: 33.8 µM
- TGI [41]: 30.8 µM
- TGI [42]: 34.3 µM
- TGI [43]: 41.5 µM
- TGI [44]: 28.2 µM
- TGI [46]: 31.6 µM
- TGI [47]: > 100 µM
- TGI [48]: 60.1 µM
- TGI [49]: > 100 µM
- TGI [50]: 28.6 µM
- TGI [51]: 35.3 µM
- TGI [52]: 35.6 µM
- TGI [53]: 41.3 µM
- TGI [54]: 33 µM
- TGI [55]: 33.8 µM
- TGI [56]: 31.3 µM
